Test results: paper PMC9298194, “Clinical Pharmacokinetics of Daprodustat: Results of an Absorption, Distribution, and Excretion Study With Intravenous Microtracer and Concomitant Oral Doses for Bioavailability Determination” (Clinical Pharmacology in Drug Development, 2021)

Assays:
[1] = Safety and tolerability (adverse events) in healthy male participants; type: in vivo, human; settings: for deaths or serious adverse events: 6 healthy men
Description: Safety and tolerability measures included assessment of adverse events (AEs), serious adverse events (SAEs), clinical laboratory findings, vital signs (systolic and diastolic blood pressure and pulse rate), ECGs, and concurrent medications. An AE was defined as any untoward medical occurrence in a participant temporally associated with the use of an investigational product, whether or not considered related to the investigational product. […] The investigator or site staff was responsible for detecting, documenting, and reporting events that met the definition of an AE or SAE.

[2] = Urine and fecal excretion of total radioactivity (mass balance); type: in vivo, human; settings: 25 mg [14C] oral solution; for total radioactivity recovered (urinary + fecal): 96‐ to 120‐hour collection (day 5) onward
Description: On day 1 of treatment period 2, after an overnight fast of at least 8 hours, each participant received 25 mg [^14C]‐GSK1278863 (≈2.31 MBq; 62.5 μCi) as an oral solution; participants continued to fast for 4 hours after dosing.[15] Blood, urine, and fecal samples were collected for a minimum of 144 hours (up to day 7) after dosing, depending on the amount of radioactivity excreted by each participant in excreta collected daily. Liquid scintillation counting (LSC) was performed on these excreta collections on an ongoing basis to assess recovery of the radioactivity dosed. Participants were discharged if ≥90% and <1% of the dose was excreted on both days 6 and 7.
Urine samples for measurement of total radioactivity excreted in urine were collected before dosing in period 1, then over the time periods 0 to 24, 24 to 48, 48 to 72, 72 to 96, 96 to 120, and 120 to 144 hours in period 2. An aliquot of each 24‐hour urine collection was shipped at ambient temperature to Covance (Harrogate, North Yorkshire, UK) for total radioactivity measurement by LSC. […] Total fecal samples were frozen at −70°C, then shipped on cold gel packs to Covance for total radioactivity measurement by LSC (following homogenization). Aliquots of both urine and fecal homogenates were also sent to GlaxoSmithKline (GSK) for characterization and quantification of metabolites (data not reported). • The following parameters were determined from the urine and fecal radiolabeled drug‐related material (total radioactivity) data: • Absolute amount excreted and percentage excreted in urine (Ae [urine] and Fe% [urine]) within each collection period and cumulative urinary recovery and fraction excreted over the total collection period • Absolute amount excreted and percentage excreted in feces (Ae [fecal] and Fe% [fecal]) with each collection period and cumulative fecal recovery and fraction excreted over the total collection period and cumulatively over the collection period
Total excretion (sum of urine and fecal excretion), Ae [total], and Fe% [total] were calculated by collection interval for each participant. […]

[3] = Period 1: 6‐mg oral tablet + 50‐μg IV

For `O=C(O)CNC(=O)C1C(=O)N(C2CCCCC2)C(=O)N(C2CCCCC2)C1=O` [Daprodustat], the “participants reporting AEs” value ([1]; 3 of 6 participants) was 50%, the Back pain [1, 3] was 1 (17) n (%) and the Decreased appetite [1, 3] was 1 (17) n (%). The Headache [1, 3] was 1 (17) n (%), the Musculoskeletal chest pain [1, 3] was 0 n (%) and the Myalgia [1, 3] was 1 (17) n (%). For the same compound, the Oropharyngeal pain [1, 3] was 0 n (%), the Back pain ([1]; Period 2: 25‐mg oral solution) was 0 n (%) and the Decreased appetite ([1]; Period 2: 25‐mg oral solution) was 0 n (%). The Headache ([1]; Period 2: 25‐mg oral solution) was 1 (17) n (%), the Musculoskeletal chest pain ([1]; Period 2: 25‐mg oral solution) was 1 (17) n (%) and the Myalgia ([1]; Period 2: 25‐mg oral solution) was 0 n (%). The Oropharyngeal pain ([1]; Period 2: 25‐mg oral solution) was 1 (17) n (%), the Back pain ([1]; Total) was 1 (17) n (%) and the Decreased appetite ([1]; Total) was 1 (17) n (%). The Headache ([1]; Total) was 1 (17) n (%), the Musculoskeletal chest pain ([1]; Total) was 1 (17) n (%) and the Myalgia ([1]; Total) was 1 (17) n (%). For the same compound, the Oropharyngeal pain ([1]; Total) was 1 (17) n (%), the “deaths or serious adverse events” value ([1]; both treatment periods) was “no deaths or serious or significant adverse events reported” and the “deaths or serious adverse events” value ([1]; both treatment periods, listed as daprodustat) was “No deaths or other SAEs”. The “total number of AEs reported” value ([1]; both treatment periods, N = 6) was 7, the tolerability ([1]; oral tablet, microtracer IV or oral solution dose) was “generally well tolerated” and the “unchanged daprodustat excreted in urine” value [2] was “≈ 0.5 % of the administered radioactivity”. For the same compound, the “total radioactivity recovered (urinary + fecal)” value [2] was “≈ 95 % of the administered radioact” and the “total radioactivity recovered (urinary + fecal)” value ([2]; listed as [^14C]‐GSK1278863) was “≈ 95 % of the administered radioactivity”.
